Results as given in ChEMBL document CHEMBL1201862, “PubChem BioAssay data set” (2004).
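Compound exposure: 48 hours, 5 concentrations, 96-well plates. GI50 = concentration required for 50% inhibition of growth.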 Active and inactive are the calls of the source. Rule as the data show it: active = GI50 up to about 1.1 µM and inactive = higher.

Experiments:
Assay in all cases: NCI tumour cell line growth inhibition, 48 h
[1] = tested on: COLO 205
[2] = tested on: MDA-MB-435
[3] = tested on: HCT-15
[4] = tested on: TK-10
[5] = tested on: NCI-H522
[6] = tested on: NCI-H226
[7] = tested on: UACC-62
[8] = tested on: RXF 393
[9] = tested on: RPMI-8226
[10] = tested on: 786-0
[11] = tested on: MOLT-4
[12] = tested on: EKVX
[13] = tested on: NCI-H23
[14] = tested on: HOP-62
[15] = tested on: HT-29
[16] = tested on: NCI/ADR-RES
[17] = tested on: SF-295
[18] = tested on: A549
[19] = tested on: Malme-3M
[20] = tested on: MDA-MB-231
[21] = tested on: MDA-N
[22] = tested on: A498
[23] = tested on: SK-MEL-2
[24] = tested on: DU-145
[25] = tested on: OVCAR-4
[26] = tested on: KM12
[27] = tested on: CAKI-1
[28] = tested on: PC-3
[29] = tested on: K562
[30] = tested on: SF-539
[31] = tested on: Hs-578T
[32] = tested on: T47D
[33] = tested on: IGROV-1
[34] = tested on: SNB-19
[35] = tested on: LOX IMVI
[36] = tested on: SN12C
[37] = tested on: SW-620
[38] = tested on: UACC-257
[39] = tested on: HCT-116
[40] = tested on: SF-268
[41] = tested on: HL-60
[42] = tested on: SK-MEL-28
[43] = tested on: OVCAR-8
[44] = tested on: ACHN
[45] = tested on: NCI-H460
[46] = tested on: HCC 2998
[47] = tested on: SR
[48] = tested on: U-251
[49] = tested on: SK-MEL-5
[50] = tested on: SNB-75
[51] = tested on: SK-OV-3
[52] = tested on: HOP-92
[53] = tested on: OVCAR-5
[54] = tested on: CCRF-CEM
[55] = tested on: UO-31
[56] = tested on: M14
[57] = tested on: OVCAR-3

## O=C(c1ccccc1)N1C(=O)N(c2ccccc2)C(=N/c2ccccc2)/C1=N\c1ccccc1
[1]
  GI50: 70.5 µM (inactive)
[2]
  GI50: > 100 µM (inactive)
[3]
  GI50: 64 µM
[4]
  GI50: > 100 µM (inactive)
[5]
  GI50: 11 µM (inactive)
[6]
  GI50: 18 µM (inactive)
[7]
  GI50: 4.18 µM (inactive)
[8]
  GI50: 99.3 µM (inactive)
[9]
  GI50: > 100 µM (inactive)
[10]
  GI50: > 100 µM (inactive)
[11]
  GI50: 19.5 µM (inactive)
[12]
  GI50: > 100 µM (inactive)
[13]
  GI50: > 100 µM (inactive)
[14]
  GI50: 52.4 µM (inactive)
[15]
  GI50: 33.7 µM (inactive)
[16]
  GI50: > 100 µM (inactive)
[17]
  GI50: > 100 µM (inactive)
[18]
  GI50: 42.2 µM (inactive)
[19]
  GI50: 69 µM (inactive)
[20]
  GI50: > 100 µM (inactive)
[21]
  GI50: > 100 µM (inactive)
[22]
  GI50: > 100 µM (inactive)
[23]
  GI50: 29.9 µM (inactive)
[24]
  GI50: > 100 µM (inactive)
[25]
  GI50: 23.4 µM (inactive)
[26]
  GI50: 13.5 µM (inactive)
[27]
  GI50: 48.1 µM (inactive)
[28]
  GI50: > 100 µM (inactive)
[29]
  GI50: 7.36 µM (inactive)
[30]
  GI50: > 100 µM (inactive)
[31]
  GI50: 20.3 µM (inactive)
[32]
  GI50: > 100 µM (inactive)
[33]
  GI50: > 100 µM (inactive)
[34]
  GI50: > 100 µM (inactive)
[35]
  GI50: 9.25 µM (inactive)
[36]
  GI50: > 100 µM (inactive)
[37]
  GI50: > 100 µM (inactive)
[38]
  GI50: 37.8 µM (inactive)
[39]
  GI50: 47.9 µM (inactive)
[40]
  GI50: > 100 µM (inactive)
[41]
  GI50: > 100 µM (inactive)
[42]
  GI50: > 100 µM (inactive)
[43]
  GI50: > 100 µM (inactive)
[44]
  GI50: 80.7 µM (inactive)
[45]
  GI50: 15 µM (inactive)
[46]
  GI50: 28.8 µM (inactive)
[47]
  GI50: 17.8 µM (inactive)
[48]
  GI50: > 100 µM (inactive)
[49]
  GI50: > 100 µM (inactive)
[50]
  GI50: > 100 µM (inactive)
[51]
  GI50: > 100 µM (inactive)
[52]
  GI50: 64.1 µM (inactive)
[53]
  GI50: 99.1 µM (inactive)
[54]
  GI50: 50.7 µM (inactive)
[55]
  GI50: > 100 µM (inactive)

## O=C(N/N=C/c1cc(Cl)cc(Cl)c1O)c1ccccc1O
[3]
  GI50: 0.395 µM
[4]
  GI50: 3.06 µM (inactive)
[5]
  GI50: 0.254 µM (active)
[6]
  GI50: 1.37 µM (inactive)
[7]
  GI50: 0.254 µM (active)
[8]
  GI50: 1.31 µM (inactive)
[14]
  GI50: 1.67 µM (inactive)
[15]
  GI50: 3.49 µM (inactive)
[17]
  GI50: 0.526 µM (active)
[25]
  GI50: 0.22 µM (active)
[27]
  GI50: 0.723 µM (active)
[29]
  GI50: 0.519 µM (active)
[56]
  GI50: 0.521 µM (active)
[33]
  GI50: 1.69 µM (inactive)
[34]
  GI50: 1.91 µM (inactive)
[35]
  GI50: 0.303 µM (active)
[37]
  GI50: 0.735 µM (active)
[38]
  GI50: 1.63 µM (inactive)
[40]
  GI50: 0.351 µM (active)
[41]
  GI50: 0.175 µM (active)
[42]
  GI50: 1 µM (active)
[43]
  GI50: 0.344 µM (active)
[57]
  GI50: 0.282 µM (active)
[44]
  GI50: 0.346 µM (active)
[45]
  GI50: 0.537 µM (active)
[46]
  GI50: 3.18 µM (inactive)
[47]
  GI50: 0.281 µM (active)
[48]
  GI50: 0.445 µM (active)
[49]
  GI50: 1.28 µM (inactive)
[50]
  GI50: 3.05 µM (inactive)
[51]
  GI50: 0.929 µM (active)
[53]
  GI50: 2.53 µM (inactive)
[55]
  GI50: 1.69 µM (inactive)
